The conditions of series [1]: pH 7; cited from earlier work.
The subject of series [2] is C. pseudotuberculosis ΔlysX complement.
The subject of series [3] is C. pseudotuberculosis wild-type.
In series [4] the test system is Corynebacterium spp. To be noted: cited from earlier work.

Converted amounts (≈) assume the structure as drawn. Where two headings read alike, the source gives them in different places. Bridge positions count the residues as written; N and C are the ends. Square brackets hold non-standard residues; d marks the D form. Peptide text beside a SMILES is read from it. * marks the point of attachment. Ileψ(thiazoline)Cys = CC[C@H](C)[C@H](N)C1=N[C@H](C(=O)*)CS1; dOrn = NCCC[C@@H](N)C(=O)O; X1 = CC[C@H](C)CCCCC(=O)*; Dab = NCC[C@H](N)C(=O)O

For `CC1(C)S[C@@H]2[C@H](NC(=O)[C@H](N)c3ccccc3)C(=O)N2[C@H]1C(=O)O` [Ampicillin], in series [1], the Charge is reported as 0.

For the compound `CN[C@@H]1[C@@H](O[C@H]2O[C@H](CO)[C@@H](N)[C@H](O)[C@H]2O)OC2C[C@@H](N)[C@@H](O[C@H]3[C@H](O)[C@@H](O)[C@H](N)C[C@@H]3N)OC2[C@@H]1O` (some centres unmarked) [Apramycin], the Charge entry in series [1] is “+5”. In addition, in series [2], the “MIC ΔlysX complement” value came to 20 µg/mL (≈ 37.1 µM). The same compound showed an MIC wt in series [3] of 20 µg/mL (≈ 37.1 µM).

In the case of `CC1(C)S[C@@H]2[C@H](NC(=O)[C@H](NC(=O)N3CCNC3=O)c3ccccc3)C(=O)N2[C@H]1C(=O)O` [Azlocillin], the Charge in series [1] is −1. The MIC wt in series [3] stood at 0.156 µg/mL (≈ 0.338 µM).

In the case of `CC[C@H](C)[C@H](N)C1=N[C@H](C(=O)N[C@@H](CC(C)C)C(=O)N[C@H](CCC(=O)O)C(=O)N[C@H](C(=O)N[C@H]2CCCCNC(=O)[C@H](CC(N)=O)NC(=O)[C@@H](CC(=O)O)NC(=O)[C@H](Cc3cnc[nH]3)NC(=O)[C@@H](Cc3ccccc3)NC(=O)[C@H]([C@@H](C)CC)NC(=O)[C@@H](CCCN)NC2=O)[C@@H](C)CC)CS1` [Bacitracin] ({Ileψ(thiazoline)Cys}-L[dE]IK[dOrn]I[dF]H[dD]N; lactam 4-C (inferred); N-terminus assumed), the Charge in series [1] was 0. In addition, the MIC wt in series [3] (24 h) is 6.4 µg/mL (≈ 4.5 µM).

As for `CO/N=C(\C(=O)N[C@@H]1C(=O)N2C(C(=O)O)=C(CSc3nc(=O)c(=O)[nH]n3C)CS[C@H]12)c1csc(N)n1` [Ceftriaxone], the Charge in series [1] is reported as −2. In addition, in series [3], the MIC wt came out at 0.625 µg/mL (≈ 1.13 µM).

As for `O=C(N[C@H](CO)[C@H](O)c1ccc([N+](=O)[O-])cc1)C(Cl)Cl` [Chloramphenicol], in series [1], the Charge is recorded as 0. The same compound gave an MIC wt in series [3] of 10 µg/mL (≈ 30.9 µM).

Consider `CC[C@H]1OC(=O)[C@H](C)[C@@H](O[C@H]2C[C@@](C)(OC)[C@@H](O)[C@H](C)O2)[C@H](C)[C@@H](O[C@@H]2O[C@H](C)C[C@H](N(C)C)[C@H]2O)[C@](C)(O)C[C@@H](C)C(=O)[C@H](C)[C@@H](O)[C@]1(C)O` [Erythromycin], for which, in series [1], the Charge result is listed as “+1”. Moreover, the MIC wt in series [3] came out at 0.156 µg/mL (≈ 0.213 µM).

As for `CNC(C)C1CCC(N)C(OC2C(N)CC(N)C(OC3OCC(C)(O)C(NC)C3O)C2O)O1` (centres unmarked) [Gentamicin], the susceptibility breakpoint in series [4] was 4 µg/mL. For the same compound, the Charge result in series [1] is given as “+5”. Besides, the “MIC ΔlysX complement” value in series [2] stood at 5 µg/mL (≈ 10.5 µM). The MIC wt in series [3] is 5 µg/mL (≈ 10.5 µM).

Take `NC[C@H]1O[C@H](O[C@H]2[C@H](O)[C@@H](O[C@H]3O[C@H](CO)[C@@H](O)[C@H](N)[C@H]3O)[C@H](N)C[C@@H]2N)[C@H](O)[C@@H](O)[C@@H]1O` [Kanamycin]: in series [1], the Charge result is listed as “+4”. In addition, in series [2], the “MIC ΔlysX complement” value was 10 µg/mL (≈ 20.6 µM). The compound further gave an MIC wt in series [3] of 10 µg/mL (≈ 20.6 µM).

For `CC[C@H](C)[C@H](NC(=O)CN)C(=O)NCC(=O)N[C@@H](C)C(=O)N[C@H](C(=O)N[C@@H](CC(C)C)C(=O)N[C@@H](CCCCN)C(=O)N[C@H](C(=O)N[C@@H](CC(C)C)C(=O)N[C@H](C(=O)N[C@H](C(=O)NCC(=O)N[C@@H](CC(C)C)C(=O)N1CCC[C@H]1C(=O)N[C@@H](C)C(=O)N[C@@H](CC(C)C)C(=O)N[C@H](C(=O)N[C@@H](CO)C(=O)N[C@@H](Cc1c[nH]c2ccccc12)C(=O)N[C@H](C(=O)N[C@@H](CCCCN)C(=O)N[C@@H](CCCNC(=N)N)C(=O)N[C@@H](CCCCN)C(=O)N[C@@H](CCCNC(=N)N)C(=O)N[C@@H](CCC(N)=O)C(=O)N[C@@H](CCC(N)=O)C(N)=O)[C@@H](C)CC)[C@@H](C)CC)[C@@H](C)O)[C@@H](C)O)C(C)C)C(C)C` [Melittin], the Charge result in series [1] is given as “+5”. In addition, the “MIC ΔlysX complement” value in series [2] (24 h) was more than 40 µg/mL. The compound further showed an MIC wt in series [3] (24 h) of more than 40 µg/mL.

`Cc1onc(-c2ccccc2)c1C(=O)N[C@@H]1C(=O)N2[C@@H]1SC(C)(C)[C@@H]2C(=O)O` [Oxacillin]: the Charge in series [1] is −1. The compound further had an MIC wt in series [3] of 2.5 µg/mL (≈ 6.23 µM).

Regarding `CN(C)[C@@H]1C(O)=C(C(N)=O)C(=O)[C@@]2(O)C(O)=C3C(=O)c4c(O)cccc4[C@@](C)(O)[C@H]3[C@H](O)[C@@H]12` [Oxytetracycline], the Charge in series [1] is 0. In series [3], this compound had an MIC wt of 0.625 µg/mL (≈ 1.36 µM).

In the case of `CC[C@H](C)CCCCC(=O)N[C@@H](CCN)C(=O)N[C@H](C(=O)N[C@@H](CCN)C(=O)N[C@H]1CCNC(=O)[C@H]([C@@H](C)O)NC(=O)[C@H](CCN)NC(=O)[C@H](CCN)NC(=O)[C@H](CC(C)C)NC(=O)[C@@H](Cc2ccccc2)NC(=O)[C@H](CCN)NC1=O)[C@@H](C)O` [Polymyxin B] (X1-[Dab]T[Dab][Dab][Dab][dF]L[Dab][Dab]T; lactam 4-C (inferred); N-terminus assumed), the Charge result in series [1] is listed as “+5”. Besides, in series [2] (24 h), the “MIC ΔlysX complement” value was 640 µg/mL (≈ 532 µM). Besides, in series [3] (24 h), the MIC wt was found to be 640 µg/mL (≈ 532 µM).

For the compound `CN[C@@H]1[C@H](O)[C@H](NC)[C@H]2O[C@@]3(O)C(=O)C[C@@H](C)O[C@H]3O[C@@H]2[C@H]1O` [Spectinomycin], the Charge result in series [1] was “+1”. Also, the “MIC ΔlysX complement” value in series [2] is recorded as 2.5 µg/mL (≈ 7.52 µM). Also, the MIC wt in series [3] turned out to be 2.5 µg/mL (≈ 7.52 µM).

Turning to `[H]/N=C(/N)N[C@H]1[C@H](O)[C@@H](O)[C@H](O[C@@H]2O[C@@H](C)[C@](O)(C=O)[C@H]2O[C@@H]2O[C@@H](CO)[C@H](O)[C@@H](O)[C@@H]2NC)[C@@H](N/C(N)=N\[H])[C@@H]1O` [Streptomycin], the Charge entry in series [1] is “+3”. The “MIC ΔlysX complement” value in series [2] came to 20 µg/mL (≈ 34.4 µM). In series [3], this compound yielded an MIC wt of 20 µg/mL (≈ 34.4 µM).

Regarding `CN(C)[C@@H]1C(O)=C(C(N)=O)C(=O)[C@@]2(O)C(O)=C3C(=O)c4c(O)cccc4[C@@](C)(O)[C@H]3C[C@@H]12` [Tetracycline], the Charge in series [1] is given as −1. In series [3], this compound displayed an MIC wt of 0.312 µg/mL (≈ 0.702 µM).

Take `CCCNC[C@]1(O)[C@H](C)O[C@@H](O[C@H]2[C@H](C)[C@@H](O[C@@H]3O[C@H](C)C[C@H](N(C)C)[C@H]3O)[C@](C)(O)C[C@@H](C)CN[C@H](C)[C@@H](O)[C@](C)(O)[C@@H](CC)OC(=O)[C@@H]2C)C[C@@]1(C)OC` [Tulathromycin]: in series [1], the Charge entry was “+3”. Further, the “MIC ΔlysX complement” value in series [2] worked out at 2.5 µg/mL (≈ 3.1 µM). This compound came in with an MIC wt in series [3] of 2.5 µg/mL (≈ 3.1 µM).

With `CN[C@H](CC(C)C)C(=O)N[C@H]1C(=O)N[C@@H](CC(N)=O)C(=O)N[C@H]2C(=O)N[C@H]3C(=O)N[C@H](C(=O)N[C@H](C(=O)O)c4cc(O)cc(O)c4-c4cc3ccc4O)[C@H](O)c3ccc(c(Cl)c3)Oc3cc2cc(c3O[C@@H]2O[C@H](CO)[C@@H](O)[C@H](O)[C@H]2O[C@H]2C[C@](C)(N)[C@H](O)[C@H](C)O2)Oc2ccc(cc2Cl)[C@H]1O` [Vancomycin], in series [1], the Charge entry is on record as “+1”. In addition, the MIC wt in series [3] (24 h) is 0.75 µg/mL (≈ 0.518 µM).

Nisin: in series [1], the Charge result is “+4”. For the same compound, the “MIC ΔlysX complement” value in series [2] is 80 µg/mL. The same compound displayed an MIC wt in series [3] of 80 µg/mL.
